Experimental data from US6165984A, “Naringin and naringenin as inhibitors of acyl CoA-cholesterol-o-acyltransferase” (Korea Institute of Science & Technology, priority 1997, dated 2000).

How the values were obtained:
[1] = Serum GOT, GPT and γGTP in a person (Example 7, Step 4); type: in vivo; conditions: human, oral, 10 mg/kg daily
Description: Naringin was orally administered to a person at a daily dose of 10 mg/kg for 68 days and serum GOT, GPT and γGTP levels were determined just before the administration (day 0), and 45 and 68 days after the administration (day 45 and day 68), respectively. Consequently, serum GOT levels at day 45 and day 68 decreased by 17%, respectively, in comparison to that of day 0. Serum GPT levels at day 45 and day 68 decreased by 15% and 19%, respectively, in comparison to that of day 0. Further, serum γGTP levels at day 45 and day 68 decreased by 25% and 51%, respectively, in comparison to that of day 0.

[2] = Serum γGTP in a habitual drinker (Example 7, Step 4); type: in vivo; conditions: human, oral, 6 mg/kg daily, 30 days; day 0: 129 IU/l
Description: On the other hand, naringin was orally administered to a person, who had drunk alcoholic beverages habitually in an amount of 100 cc per day, at a daily dose of 6 mg/kg for 30 days and serum γGTP level was determined just before the administration (day 0) and 30 days after the administration (day 30). Consequently, initial serum γGTP level at day 0 was 129 IU/l, while that of day 30 decreased to 69 IU/l which is within the normal range.

SMILES: C[C@@H]1O[C@@H](O[C@H]2[C@H](Oc3cc(O)c4c(c3)O[C@H](c3ccc(O)cc3)CC4=O)O[C@H](CO)[C@@H](O)[C@@H]2O)[C@H](O)[C@H](O)[C@H]1O [naringin, Naringin]
- decrease of serum GOT level, day 45 vs day 0 ([1]; day 45): 17%
- decrease of serum GPT level, day 45 vs day 0 ([1]; day 45): 15%
- decrease of serum γGTP level, day 45 vs day 0 ([1]; day 45): 25%
- decrease of serum GOT level, day 68 vs day 0 ([1]; day 68): 17%
- decrease of serum GPT level, day 68 vs day 0 ([1]; day 68): 19%
- serum γGTP level at day 30 [2]: 69 IU/l
